Measurements: paper PMC9311798, “A Novel Class of Potent Anti-Tyrosinase Compounds with Antioxidant Activity, 2-(Substituted phenyl)-5-(trifluoromethyl)benzo[d]thiazoles: In Vitro and In Silico Insights” (Antioxidants, 2022)

How the values were obtained:
[1] = test system: B16F10 murine melanoma cells; test: Extracellular melanin content (melanin release into medium) in α-MSH/IBMX-stimulated cells; format: cell-based
Procedure: The anti-melanogenic activities of 1a and 1b were determined using a standard melanin content assay, with minor changes. Briefly, B16F10 cells were seeded in the wells of a 6-well plate at a density of 1 × 10^5 cells/well, and allowed to adhere to well bottoms over 24 h under the conditions used for cell culture (Section 2.3.5). […] Absorbances of culture media at 405 nm were used to determine extracellular melanin contents.

[2] = test system: B16F10 murine melanoma cells; test: Intracellular melanin content in α-MSH/IBMX-stimulated cells; format: cell-based
Procedure: The cultured cells were rinsed with PBS twice and pellets were dissolved in 200 µL of 1N-NaOH solution containing 10% DMSO for 1 h at 60 °C. Cell lysates were then transferred to a 96-well plate, and the melanin absorbances were measured in aqueous DMSO at 405 nm using a microplate reader (VersaMax^TM, Molecular Devices, Sunnyvale, CA, USA).

[3] = target: T1, cellular tyrosinase in B16F10 cells (Mus musculus, UniProt P11344); test: Cellular tyrosinase activity (L-DOPA oxidation) in α-MSH/IBMX-stimulated cells; format: cell-based, murine
T1 construct: endogenous in cells; host or cells: B16F10 murine melanoma cells, stimulated with alpha-MSH and IBMX
T1 sequence (P11344 19-533): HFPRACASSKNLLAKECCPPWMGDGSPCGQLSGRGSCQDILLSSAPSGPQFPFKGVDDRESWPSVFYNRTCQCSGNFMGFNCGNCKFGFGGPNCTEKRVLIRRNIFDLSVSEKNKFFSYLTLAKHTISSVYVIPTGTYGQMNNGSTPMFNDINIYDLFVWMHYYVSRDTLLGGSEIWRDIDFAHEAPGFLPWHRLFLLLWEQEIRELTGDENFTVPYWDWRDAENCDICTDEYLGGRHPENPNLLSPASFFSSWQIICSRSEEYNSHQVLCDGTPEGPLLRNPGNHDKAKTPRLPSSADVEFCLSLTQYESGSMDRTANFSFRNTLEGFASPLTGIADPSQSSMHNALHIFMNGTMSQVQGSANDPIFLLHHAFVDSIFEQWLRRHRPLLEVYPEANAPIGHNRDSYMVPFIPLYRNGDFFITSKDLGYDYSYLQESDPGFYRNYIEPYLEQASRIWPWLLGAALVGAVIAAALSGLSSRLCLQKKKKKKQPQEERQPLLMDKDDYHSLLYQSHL
Procedure: Cellular tyrosinase activity was assessed by measuring the oxidation rate of L-DOPA as previously described, with minor modifications. In brief, B16F10 cells were seeded in a 6-well plate at 1 × 10^5 cells/well, and allowed to adhere to well bottoms for 24 h, as described in Section 2.3.5. […]. Cells were then rinsed twice with PBS, exposed to 100 µL of lysis buffer solution (90 µL of 50 mM phosphate buffer (pH 6.5), 5 µL of 2 mM PMSF, and 5 µL of 20% Triton X-100), and lysed at −80 °C for 30 min. After defrosting, cell lysates were transferred to microcentrifuge tubes and centrifuged at 12,000 rpm for 30 min at 4°C, and supernatants (80 µL) were mixed with 20 µL of L-DOPA (2 mg/mL) in a 96-well plate, and incubated for 10 min at 37 °C. Absorbances were measured at 475 nm using a microplate reader (VersaMax^TM, Molecular Devices, Sunnyvale, CA, USA).

[4] = test system: tyrosinase glycosylation in B16F10 cells; test: Western blot of glycosylated and non-glycosylated tyrosinase; format: cell-based, murine; conditions: 2, 5, 10, 20 µM, 48 h; cytosolic fraction
Procedure: Five different concentrations of 1b (0, 2, 5, 10, and 20 µM) were exposed to B16F10 cells for 48 h, and the cells were washed with cold PBS two times, harvested, lysed, and centrifuged at 4 °C (12,000 rpm for 10 min). Cell pellets were suspended in 10 mM Tris (pH 8.0) containing 1.5 mM MgCl2, 1 mM DTT, 0.1% NP-40, and protease inhibitors (GenDEPOT), incubated on ice for 15 min, and centrifuged at 12,000× g for 15 min at 4 °C. Supernatants (cytosolic fractions) and pellets were resuspended in 10 mM Tris (pH 8.0) containing 50 mM KCl, 100 mM NaCl, and protease inhibitor, incubated on ice for 30 min, and centrifuged at 12,000× g for 15 min at 4 °C. The resultant supernatants were nuclear fractions. The protein concentrations were determined by a Bicinchoninic Acid (BCA)™ Assay Kit (Pierce, Rockford, IL, USA). The lysed protein samples were mixed in loading buffer (0.2% bromophenol blue, 12.5 mM Tris-HCl, pH 6.8, 10% 2-mercaptoethanol, and 4% SDS) at a volume ratio of 1:4, and boiled for 10 min. […] Quantification of Western blot data were analyzed by CS Analyzer 3.2 (Densitograph) image software (http://www.attokorea.co.kr, admitted on 21 May 2022).

[5] = ABTS radical scavenging activity assay; conditions: 100 µM, 2 min in the dark
Procedure: At 734 nm, optical densities of the solutions were measured using a microplate reader (VersaMax^TM, Molecular Devices, Sunnyvale, CA, USA). The ABTS radical scavenging capacities of the 16 2-arylbenzothiazole derivatives were compared with trolox. All experiments were performed independently in triplicate.

[6] = 10 µM, compared with kojic acid 20 µM

Compound: Oc1ccc(-c2nc3cc(C(F)(F)F)ccc3s2)c(O)c1 [Compound 1b, 4-(5-(Trifluoromethyl)benzo[d]thiazol-2-yl)benzene-1,3-diol]
- melanin release ([1]; 20 µM): reduced melanin release to control levels
- effect on melanin content in media ([1]; 5, 10, 20 µM, α-MSH (1 µM) + IBMX (200 µM), 48 h): concentration-dependently and significantly reduced melanin content increases
- inhibition of α-MSH/IBMX-induced intracellular melanin increase [2, 6]: more potently inhibited α-MSH/IBMX-induced increases in melanin than kojic acid at 20 µM
- intracellular melanin content, lower than untreated control group ([2]; 20 µM, α-MSH/IBMX co-treated cells): 20%
- effect on intracellular melanin content ([2]; 5, 10, 20 µM, α-MSH + IBMX, 48 h): significantly and concentration-dependently reduced intracellular melanin increases
- cellular tyrosinase activity [3, 6]: reduced tyrosinase activity to that achieved by 20 µM kojic acid
- cellular tyrosinase activity ([3]; 20 µM): reduced tyrosinase activity to the untreated control level
- effect on cellular tyrosinase activity ([3]; 5, 10, 20 µM, IBMX + α-MSH, 48 h): significantly and concentration-dependently suppressed
- ratio of glycosylated tyrosinase to total tyrosinase [4]: significantly reduced
- ABTS radical scavenging activity (in words) [5]: potently scavenged the ABTS radical
- ABTS free radical scavenged (%) ([5]; 734 nm): 75%
